# Reference: patent publication US6162459A, “Acyclovir transdermal delivery system” (priority 1997, dated 2000)
# “Also recorded” adds a separate entry of the source.
# Key:
# [1] = system: HSV 1; conditions: cited from earlier work
# [2] = system: HSV 1; conditions: cited from earlier work; remark: listed apart in the source
# [3] = system: HSV 2; conditions: cited from earlier work
# [4] = system: Varicella Zoster virus(VZV); conditions: cited from earlier work
# [5] = system: Epstein Barr virus(EBV); conditions: cited from earlier work
# [6] = system: Cytomegalovirus(CMV); conditions: cited from earlier work
# [7] = system: HSV; conditions: in vivo studies; cited from earlier work
# [8] = used locally; cited from earlier work
# [9] = in vitro; cited from earlier work
# [10] = in vivo; cited from earlier work
# [11] = format: physicochemical
# Source text: Since drugs are said to pass the skin through either polar pathways or norpolar pathways, it is instructive to examine the solubility parameters and lipophilic indices of such enhancers, the latter being calculated from the defermination of their k' values in the mobile phase of varying methanol concentrations of the HPLC method used.
smiles,measurement,setting,value
"Nc1nc2c(ncn2COCCO)c(=O)[nH]1 [ACV, 9-[(2-Hydroxyethoxy)methyl]-guanine]","drug concentration in the skin, local vs oral",[1]; local application vs given orally,2-3 times lower
same,"effect in the treatment of HSV 1, oral vs local",[1]; oral administration vs local application,better with oral administration than with local application
same,activity against HSV 1,[2],active; also recorded: especially HSV 1
same,activity against HSV 2,[3],active
same,activity against VZV,[4],active
same,activity against EBV,[5],"active against EBV, but only during the productive cycle"
same,activity against CMV,[6],active
same,"effectiveness against CMV, comparison","[6]; compared with DHPG, Idoxuridine, Trifluridine, or Ara-A, in some case","less effective against CMV as compared with DHPG, Idoxuridine, Trifluridine, orAra-A"
same,"in vivo rating to treat HSV, comparison",[7],better than FIAC(D17) and DHPG(D2); also recorded: better than bromovinyldeoxy uridine(D16) being effective against both HSV 1 and HSV 2
O=c1[nH]c(=O)n([C@H]2C[C@H](O)[C@@H](CO)O2)cc1I [IDU],toxicity,[8],relatively low toxicities
CC1(C)[C@@H](O[C@H]2O[C@H](C(=O)O)[C@@H](O)[C@H](O)[C@H]2O[C@@H]2O[C@H](C(=O)O)[C@@H](O)[C@H](O)[C@H]2O)CC[C@]2(C)[C@H]3C(=O)C=C4[C@@H]5C[C@@](C)(C(=O)O)CC[C@]5(C)CC[C@@]4(C)[C@]3(C)CC[C@@H]12 [glycyrrhizin],anti-inflammatory property,[9],anti-inflammatory property
same,effect against paw swelling,[10],effective against paw swelling
CC1(C)CC[C@]2(C(=O)O)CC[C@]3(C)C(=CC[C@@H]4[C@@]5(C)CC[C@H](O)C(C)(C)[C@@H]5CC[C@]43C)[C@@H]2C1 [oleanolic acid],polarity,[11],opposite polarities
